Numbers after ± are expanded uncertainties.
Tests used:
[1] = 101.33 kPa, Liquid
[2] = refractive index (Na D-line) (dimensionless); conditions: 101.33 kPa, Liquid, Standard Abbe refractometry
[3] = excess molar enthalpy (molar enthalpy of mixing); xn = mol fraction of the nth substance listed; conditions: 101 kPa, Liquid, Calvet calorimetry

Cc1ccc(C(C)C)cc1 [1-(1-methylethyl)-4-methylbenzene]
mass density ([1]; 298.15 K): 853.47 ± 1.1 kg/m3 | mass density ([1]; 308.15 K): 845.59 ± 1.1 kg/m3 | mass density ([1]; 318.15 K): 838.46 ± 1.1 kg/m3 | refractive index ([2]; 298.15 K): 1.4878 ± 0.0006 | refractive index ([2]; 308.15 K): 1.4831 ± 0.0006 | refractive index ([2]; 318.15 K): 1.4789 ± 0.0006

CC1=CCC2CC1C2(C)C (centres undefined) [2-pinene]
mass density ([1]; 298.15 K): 854.03 ± 0.93 kg/m3 | mass density ([1]; 308.15 K): 845.79 ± 0.97 kg/m3 | mass density ([1]; 318.15 K): 838.64 ± 1 kg/m3 | refractive index ([2]; 298.15 K): 1.4626 ± 0.0006 | refractive index ([2]; 308.15 K): 1.4581 ± 0.0006 | refractive index ([2]; 318.15 K): 1.4542 ± 0.0006

CC1=CCC2CC1C2(C)C (centres undefined) [2-pinene] + C=C1CCC2CC1C2(C)C
excess molar enthalpy ([3]; 298.15 K, x1 = 0.2012): 0.00167 ± 0.000191 kcal/mol | excess molar enthalpy ([3]; 298.15 K, x1 = 0.3013): 0.0022 ± 0.000191 kcal/mol | excess molar enthalpy ([3]; 298.15 K, x1 = 0.3987): 0.00253 ± 0.000215 kcal/mol | excess molar enthalpy ([3]; 298.15 K, x1 = 0.4993): 0.00265 ± 0.000215 kcal/mol | excess molar enthalpy ([3]; 298.15 K, x1 = 0.5994): 0.00246 ± 0.000215 kcal/mol | excess molar enthalpy ([3]; 298.15 K, x1 = 0.7023): 0.00227 ± 0.000215 kcal/mol | excess molar enthalpy ([3]; 298.15 K, x1 = 0.7998): 0.00174 ± 0.000191 kcal/mol | excess molar enthalpy ([3]; 308.15 K, x1 = 0.2): 0.00179 ± 0.000191 kcal/mol | excess molar enthalpy ([3]; 308.15 K, x1 = 0.3004): 0.00241 ± 0.000215 kcal/mol | excess molar enthalpy ([3]; 308.15 K, x1 = 0.3999): 0.00272 ± 0.000215 kcal/mol | excess molar enthalpy ([3]; 308.15 K, x1 = 0.5006): 0.00284 ± 0.000215 kcal/mol | excess molar enthalpy ([3]; 308.15 K, x1 = 0.6013): 0.00261 ± 0.000215 kcal/mol | excess molar enthalpy ([3]; 308.15 K, x1 = 0.6972): 0.00237 ± 0.000215 kcal/mol | excess molar enthalpy ([3]; 308.15 K, x1 = 0.7998): 0.00177 ± 0.000191 kcal/mol | excess molar enthalpy ([3]; 318.15 K, x1 = 0.2003): 0.0021 ± 0.000191 kcal/mol | excess molar enthalpy ([3]; 318.15 K, x1 = 0.3001): 0.00268 ± 0.000215 kcal/mol | excess molar enthalpy ([3]; 318.15 K, x1 = 0.4034): 0.00304 ± 0.000215 kcal/mol | excess molar enthalpy ([3]; 318.15 K, x1 = 0.5): 0.00315 ± 0.000215 kcal/mol | excess molar enthalpy ([3]; 318.15 K, x1 = 0.6004): 0.00301 ± 0.000215 kcal/mol | excess molar enthalpy ([3]; 318.15 K, x1 = 0.7012): 0.00272 ± 0.000215 kcal/mol | excess molar enthalpy ([3]; 318.15 K, x1 = 0.7975): 0.00201 ± 0.000191 kcal/mol

C=C1CCC2CC1C2(C)C (stereo not drawn) [β-pinene]
mass density ([1]; 298.15 K): 867.06 ± 0.9 kg/m3 | mass density ([1]; 308.15 K): 859.08 ± 0.93 kg/m3 | mass density ([1]; 318.15 K): 852.08 ± 0.96 kg/m3 | refractive index ([2]; 298.15 K): 1.476 ± 0.0006 | refractive index ([2]; 308.15 K): 1.4714 ± 0.0006 | refractive index ([2]; 318.15 K): 1.4665 ± 0.0006

Source: the NIST ThermoML archive (doi:10.1021/je060420p)
